Assay results from ChEMBL document CHEMBL4396865, “Current advances of triazole alcohols derived from fluconazole: Design, in vitro and in silico studies” (2019).
In brackets after ≈: the same amount, converted by molar mass.

Assays:
Type in all cases: functional
Candida albicans [1] = assay: Antifungal activity against Candida albicans CA98001; settings: Candida albicans, CA98001; read-out: MIC
Candida albicans [2] = assay: Antifungal activity against Candida albicans DSY735; settings: Candida albicans, DSY735; read-out: MIC
Candida albicans [3] = assay: Antifungal activity against Candida albicans CAAL-74; settings: Candida albicans, CAAL-74; read-out: MIC
Pichia kudriavzevii [4] = assay: Antifungal activity against Candida krusei CK506; settings: Pichia kudriavzevii, CK506; read-out: MIC
Pichia kudriavzevii [5] = assay: Antifungal activity against Candida krusei CK8; settings: Pichia kudriavzevii, CK8; read-out: MIC
Nakaseomyces glabratus = assay: Antifungal activity against Candida glabrata CG468; settings: Nakaseomyces glabratus, CG468; read-out: MIC
Candida parapsilosis [6] = assay: Antifungal activity against Candida parapsilosis CAPA1; settings: Lodderomyces parapsilosis, CAPA1; read-out: MIC
Candida parapsilosis [7] = assay: Antifungal activity against Candida parapsilosis CAPA2; settings: Lodderomyces parapsilosis, CAPA2; read-out: MIC
Aspergillus fumigatus [8] = assay: Antifungal activity against Aspergillus fumigatus AF98003
Candida albicans [9] = assay: Antifungal activity against Candida albicans; settings: Candida albicans
Candida parapsilosis [10] = assay: Antifungal activity against Candida parapsilosis; settings: Lodderomyces parapsilosis
Cryptococcus neoformans = assay: Antifungal activity against Cryptococcus neoformans; settings: Cryptococcus neoformans
Trichophyton rubrum [11] = assay: Potency index, ratio of fluconazole MIC80 to test compound MIC80 for Trichophyton rubrum
Nannizzia gypsea = assay: Potency index, ratio of fluconazole MIC80 to test compound MIC80 for Microsporum gypseum
Candida albicans [12] = assay: Antifungal activity against Candida albicans infected in Caenorhabditis elegans assessed as survival at 16 ug/ml relative to control
Candida tropicalis = assay: Antifungal activity against Candida tropicalis; settings: Candida tropicalis
Kluyveromyces marxianus = assay: Antifungal activity against Candida kefyr; settings: Kluyveromyces marxianus
Trichophyton rubrum [13] = assay: Antifungal activity against Trichophyton rubrum; settings: Trichophyton rubrum
Aspergillus fumigatus [14] = assay: Antifungal activity against Aspergillus fumigatus; settings: Aspergillus fumigatus
Candida albicans [15] = assay: Antifungal activity against Candida albicans ATCC 76615 after 24 hrs by microbroth dilution method; settings: ATCC 76615, 24 h
Candida albicans [16] = assay: Potency index, ratio of fluconazole MIC to test compound MIC for Candida albicans

| SMILES | MIC (Candida albicans [1]) [mg/L] | MIC (Candida albicans [2]) [mg/L] | MIC (Candida albicans [3]) [mg/L] | MIC (Pichia kudriavzevii [4]) [mg/L] | MIC (Pichia kudriavzevii [5]) [mg/L] | MIC (Nakaseomyces glabratus) [mg/L] | MIC (Candida parapsilosis [6]) [mg/L] | MIC (Candida parapsilosis [7]) [mg/L] | MIC (Aspergillus fumigatus [8]) [mg/L] | other results |
| --- | --- | --- | --- | --- | --- | --- | --- | --- | --- | --- |
| CN(Cc1ccc(S(=O)(=O)Nc2ccccc2)cc1)CC(O)(Cn1cncn1)c1ccc(F)cc1F (configuration not stated) | 0.001 to 0.069 (≈ 0.00195 to 0.134 µM) | 0.001 to 0.069 (≈ 0.00195 to 0.134 µM) | 0.001 to 0.069 (≈ 0.00195 to 0.134 µM) | 0.001 to 0.069 (≈ 0.00195 to 0.134 µM) | 0.001 to 0.069 (≈ 0.00195 to 0.134 µM) | 0.001 to 0.069 (≈ 0.00195 to 0.134 µM) | 0.001 to 0.069 (≈ 0.00195 to 0.134 µM) | 0.001 to 0.069 (≈ 0.00195 to 0.134 µM) | 0.767 to 3.57 (≈ 1.49 to 6.95 µM) |  |
| OC(CN1CCN(Cc2cn(Cc3ccc(Br)cc3)nn2)CC1)(Cn1cncn1)c1ccc(F)cc1F (configuration not stated) |  |  |  |  |  |  |  |  |  | MIC80 (Candida albicans [9]): ≤ 0.5 mg/L; MIC80 (Candida parapsilosis [10]): ≤ 0.5 mg/L; MIC80 (Cryptococcus neoformans): ≤ 0.5 mg/L; Ratio (Trichophyton rubrum [11]): 4 - 128; Ratio (Nannizzia gypsea): 4 - 128 |
| CN(Cc1ccc(S(=O)(=O)Nc2ccc([N+](=O)[O-])cc2)cc1)CC(O)(Cn1cncn1)c1ccc(F)cc1F (configuration not stated) | 0.001 to 0.069 (≈ 0.00179 to 0.124 µM) | 0.001 to 0.069 (≈ 0.00179 to 0.124 µM) | 0.001 to 0.069 (≈ 0.00179 to 0.124 µM) | 0.001 to 0.069 (≈ 0.00179 to 0.124 µM) | 0.001 to 0.069 (≈ 0.00179 to 0.124 µM) | 0.001 to 0.069 (≈ 0.00179 to 0.124 µM) | 0.001 to 0.069 (≈ 0.00179 to 0.124 µM) | 0.001 to 0.069 (≈ 0.00179 to 0.124 µM) | 0.767 to 3.57 (≈ 1.37 to 6.39 µM) |  |
| OC(Cn1cncn1)(Cn1cc(C2CC2)nn1)c1ccc(F)cc1F (configuration not stated) |  |  |  |  |  |  |  |  |  | MIC (Candida albicans [9]; read-out: MIC): 0.125 mg/L (≈ 0.361 µM); survival at 16 µg/mL (Candida albicans [12]): 70% |
| OC(CN1CCC(OCc2ccc(Cl)cc2Cl)CC1)(Cn1cncn1)c1ccc(F)cc1F (configuration not stated) |  |  |  |  |  |  |  |  |  | MIC80 (Candida albicans [9]): 0.01 µM; MIC80 (Candida parapsilosis [10]): 0.01 to 2.33 µM; MIC80 (Candida tropicalis): 0.01 to 2.33 µM (≈ 0.00497 to 1.16 µg/mL); MIC80 (Kluyveromyces marxianus): 0.01 to 2.33 µM (≈ 0.00497 to 1.16 µg/mL); MIC80 (Cryptococcus neoformans): 0.01 to 2.33 µM; MIC80 (Trichophyton rubrum [13]): 0.03 to 0.15 µM (≈ 0.0149 to 0.0746 µg/mL); MIC80 (Aspergillus fumigatus [14]): 0.55 to 2.33 µM (≈ 0.274 to 1.16 µg/mL); MIC80 (Candida albicans [15]): 0.01 to 2.33 µM (≈ 0.00497 to 1.16 µg/mL); Ratio (Candida albicans [16]): 82 |
| CC(C)c1ccc(NS(=O)(=O)c2ccc(CN(C)CC(O)(Cn3cncn3)c3ccc(F)cc3F)cc2)cc1 (configuration not stated) | 0.001 to 0.069 (≈ 0.0018 to 0.124 µM) | 0.001 to 0.069 (≈ 0.0018 to 0.124 µM) | 0.001 to 0.069 (≈ 0.0018 to 0.124 µM) | 0.001 to 0.069 (≈ 0.0018 to 0.124 µM) | 0.001 to 0.069 (≈ 0.0018 to 0.124 µM) | 0.001 to 0.069 (≈ 0.0018 to 0.124 µM) | 0.001 to 0.069 (≈ 0.0018 to 0.124 µM) | 0.001 to 0.069 (≈ 0.0018 to 0.124 µM) | 0.767 to 3.57 (≈ 1.38 to 6.42 µM) |  |
| CCCNS(=O)(=O)c1ccc(CN(C)CC(O)(Cn2cncn2)c2ccc(F)cc2F)cc1 (configuration not stated) | 0.001 to 0.069 (≈ 0.00209 to 0.144 µM) | 0.001 to 0.069 (≈ 0.00209 to 0.144 µM) | 0.001 to 0.069 (≈ 0.00209 to 0.144 µM) | 0.001 to 0.069 (≈ 0.00209 to 0.144 µM) | 0.001 to 0.069 (≈ 0.00209 to 0.144 µM) | 0.001 to 0.069 (≈ 0.00209 to 0.144 µM) | 0.001 to 0.069 (≈ 0.00209 to 0.144 µM) | 0.001 to 0.069 (≈ 0.00209 to 0.144 µM) | 0.767 to 3.57 (≈ 1.6 to 7.44 µM) |  |
